In patent publication US11214803B2, “Modulators of YAP1 expression” (Ionis Pharmaceuticals, Inc., priority 2019, dated 2022):
Strand notation (5' to 3'): a small letter for the sugar, then the base; units joined by * are phosphorothioate-linked, units joined directly phosphodiester-linked; [ ] holds rarer units or linkages, { } end groups; capitals alone tell only the bases. e = 2'-O-(2-methoxyethyl) (MOE); k = constrained ethyl (cEt); [5mC] = 5-methylcytosine; d = 2'-deoxy (DNA); m = 2'-O-methyl

System: Yap1 mRNA
Experiment: Antisense inhibition of human Yap1 in SNU-449 cells by modified oligonucleotides, single dose (Example 5, RTS36584)
Type: cell-based
Details: Table 40 (separate experiment); SNU-449 cells, 10,000 cells per well, free uptake, 2,000 nM oligonucleotide, approx. 48 hours; RTS36584; normalized to RIBOGREEN; Yap1 mRNA relative to untreated control
In short: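 Plate SNU-449 cells at 10,000 per well; add 2,000 nM modified oligonucleotide without transfection reagent; after ~48 h isolate RNA, run qRT-PCR with RTS36584, normalise to RIBOGREEN and report % UTC.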

For “1198442 (kT*dA*dA*dA*dG*dT*dG*dT*dA*dT*dG*kT*e[5mC]*kA*eG*kA; antisense) [Compound 1198442]”, the “YAP1 (% UTC)” value was 44 % UTC.

Same assay, conditions: Table 41; SNU-449 cells, 10,000 cells per well, free uptake, 2,000 nM modified oligonucleotide, approximately 48 hours; RTS36584; normalized to RIBOGREEN; Yap1 mRNA relative to untreated control cells

Point of comparison: “1198736 (kT*eG*kA*dG*dG*dT*dA*dT*dA*dA*d[5mC]*dT*eG*eG*kG*k[5mC]; antisense) [Compound 1198736]”, “YAP1 (% UTC)” value 20 % UTC. Against it:
- 1198658 (kA*kA*dG*d[5mC]*dA*d[5mC]*dT*dT*dT*dT*dA*d[5mC]*kA*eT*kT*eA; antisense) [Compound 1198658] — higher, 62 % UTC
- 1198776 (kG*eA*k[5mC]*dA*dA*d[5mC]*dT*d[5mC]*dT*dT*dA*dT*eA*eT*kG*kG) [Compound 1198776] — higher, 57 % UTC

Same assay, conditions: Table 42 (separate experiment); SNU-449 cells, 10,000 cells per well, free uptake, 2,000 nM modified oligonucleotide, approximately 48 hours; RTS36584; normalized to RIBOGREEN; Yap1 mRNA relative to untreated control cells

Point of comparison: “1198650 (kA*kA*d[5mC]*dA*d[5mC]*dT*dG*dA*dG*dG*dT*dA*kT*eA*kA*e[5mC]) [Compound 1198650]”, “YAP1 (% UTC)” value 88 % UTC. Against it:
- 1198697 (antisense kA*kG*dT*dG*dT*dA*dT*dG*dT*d[5mC]*dA*dG*kA*eA*kG*eA) [Compound 1198697] — lower, 12 % UTC

Same assay, conditions: Table 43 experiment; SNU-449 cells, 10,000 cells per well, free uptake, 2,000 nM, approximately 48 hours; RTS36584; Yap1 mRNA normalized to RIBOGREEN, relative to untreated control cells

Point of comparison: “1198483 (antisense k[5mC]*kA*d[5mC]*dT*dT*dT*dT*dA*d[5mC]*dA*dT*eT*kA*eG*kG*eA) [Compound 1198483]”, “YAP1 (% UTC)” value 31 % UTC. Against it:
- 1198472 (antisense kT*kA*dT*dA*dT*dT*dA*dG*dA*dG*dT*eA*kT*eG*kT*eG) [Compound 1198472] — higher, 60 % UTC

Same assay, conditions: Table 44 experiment; SNU-449 cells, 10,000 cells per well, free uptake, 2,000 nM, approximately 48 hours; RTS36584; Yap1 mRNA normalized to RIBOGREEN, relative to untreated control cells

Point of comparison: “1198892 (kA*kA*dT*dT*dG*dT*d[5mC]*dT*d[5mC]*dA*dT*kG*d[5mC]*k[5mC]*dT*kT) [Compound 1198892]”, “YAP1 (% UTC)” value 24 % UTC. Against it:
- 1198499 (kT*kT*dT*dA*dG*dG*dA*dT*dG*d[5mC]*dA*eT*kG*eG*kT*eT; antisense) [Compound 1198499] — lower, 13 % UTC
- 1198491 (antisense k[5mC]*kT*dT*dT*dG*dG*dA*dA*dG*dA*dT*e[5mC]*kT*eG*kA*eA) [Compound 1198491] — lower, 22 % UTC

Same assay, conditions: Table 45; Yap1 mRNA as percent of untreated control, SNU-449 cells, single dose

Point of comparison: “1198975 (kT*kT*dA*dG*dA*d[5mC]*dT*dA*dA*dG*dT*kA*dA*kG*dG*kT; antisense) [Compound 1198975]”, “YAP1 (% UTC)” value 52 % UTC. Against it:
- 1198924 (kT*kT*dT*dG*dG*dA*dA*dG*dA*dT*d[5mC]*kT*dG*kA*dA*kA; antisense) [Compound 1198924] — higher, 75 % UTC
- 1198952 (kT*kA*dA*dT*dA*dT*dT*dG*d[5mC]*dA*kA*kT*d[5mC]*kT*dG*kT; antisense) [Compound 1198952] — higher, 77 % UTC
- 1198896 (kT*kG*dG*dA*dA*dA*dT*dT*dG*dT*d[5mC]*kT*d[5mC]*kA*dT*kG; antisense) [Compound 1198896] — higher, 59 % UTC

Same assay, conditions: Table 46; Yap1 mRNA as percent of untreated control, SNU-449 cells, single dose

Point of comparison: “1198839 (k[5mC]*kT*dT*dT*dG*dG*dA*dA*dG*dA*dT*k[5mC]*eT*kG*eA*kA; antisense) [Compound 1198839]”, “YAP1 (% UT)” value 36 % UT. Against it:
- 1198819 (kA*kT*dA*dT*dT*dA*dG*dA*dG*dT*dA*kT*eG*kT*eG*kG; antisense) [Compound 1198819] — higher, 44 % UT
- 1198864 (kA*kT*dA*dT*dT*dG*d[5mC]*dA*dA*dT*d[5mC]*kT*eG*kT*e[5mC]*kT; antisense) [Compound 1198864] — higher, 56 % UT

Same assay, conditions: Table 48; Yap1 mRNA level relative to untreated control; modified oligonucleotides targeting SEQ ID NO.: 1 and 2

Point of comparison: “1198345 (kA*kA*kT*dA*dT*dT*dG*d[5mC]*dA*dA*dT*d[5mC]*kT*eG*kT*e[5mC]; antisense) [Compound 1198345]”, “YAP1 (% UT)” value 75 % UT. Against it:
- 1198344 (kA*kT*kA*dT*dT*dG*d[5mC]*dA*dA*dT*d[5mC]*dT*kG*eT*k[5mC]*eT; antisense) [Compound 1198344] — lower, 55 % UT
- 1197199 (antisense kA*kT*kA*dT*dG*dG*dT*dT*dT*dT*dG*dT*dG*kT*kG*kT) [Compound 1197199] — the same, 75 % UT
- 1198295 (kT*kA*kG*dA*dG*dT*dA*dT*dG*dT*dG*dG*k[5mC]*eA*kA*eT; antisense) [Compound 1198295] — lower, 15 % UT

Same assay, conditions: Table 49; Yap1 mRNA level relative to untreated control; modified oligonucleotides targeting SEQ ID NO.: 1 and 2

Point of comparison: “1198362 (kA*kG*kT*dA*dA*dG*dG*dT*dT*dT*d[5mC]*d[5mC]*k[5mC]*eA*kG*eA; antisense) [Compound 1198362]”, “YAP1 (% UT)” value 24 % UT. Against it:
- 1198337 (kT*k[5mC]*kT*dT*dA*dT*dA*dT*dG*dG*dT*dT*kT*eT*kG*eT; antisense) [Compound 1198337] — higher, 26 % UT
- 1198582 (antisense kA*kT*kA*dG*dT*dG*d[5mC]*dT*dT*dT*dG*dG*kA*kA*kG*eA) [Compound 1198582] — higher, 63 % UT
- 1198364 (kT*kA*kA*dG*dT*dA*dA*dG*dG*dT*dT*dT*k[5mC]*e[5mC]*k[5mC]*eA; antisense) [Compound 1198364] — higher, 29 % UT

Same assay, conditions: Table 50; Yap1 mRNA remaining as percent of untreated control (UT), SNU-449 cells, single dose

Point of comparison: “1198620 (kA*kG*kT*dA*dA*dG*dG*dT*dT*dT*d[5mC]*d[5mC]*k[5mC]*kA*kG*eA) [Compound 1198620]”, “YAP1 (% UT)” value 26 % UT. Against it:
- 1198562 (antisense kA*kG*kG*dT*dA*dT*dA*dA*d[5mC]*dT*dG*dG*kG*k[5mC]*kA*eA) [Compound 1198562] — higher, 30 % UT
- 1198563 (antisense kG*kA*kG*dG*dT*dA*dT*dA*dA*d[5mC]*dT*dG*kG*kG*k[5mC]*eA) [Compound 1198563] — higher, 53 % UT

Same assay, conditions: Table 51; Yap1 mRNA remaining as percent of untreated control (UT), SNU-449 cells, single dose

Point of comparison: “1197239 (antisense kT*kG*kA*dG*mG*dT*dA*dT*dA*dA*d[5mC]*dT*dG*kG*kG*k[5mC]) [Compound 1197239]”, “YAP1 (% UT)” value 47 % UT. Against it:
- 1200799 (kA*kT*kA*dT*dT*mA*dG*dA*dG*dT*dA*dT*dG*kT*kG*kG; antisense) [Compound 1200799] — lower, 27 % UT
- 1197241 (antisense kA*k[5mC]*kT*dG*mA*dG*dG*dT*dA*dT*dA*dA*d[5mC]*kT*kG*kG) [Compound 1197241] — lower, 19 % UT

Same assay, conditions: Table 52; Yap1 mRNA, modified oligonucleotides targeting SEQ ID NO: 1 and 2

Point of comparison: “1200855 (kT*kT*kT*dA*dT*mG*dT*dA*dA*dT*dA*dT*dT*kG*k[5mC]*kA; antisense) [Compound 1200855]”, “YAP1 (% UT)” value 56 % UT. Against it:
- 1200834 (kA*kG*kA*dT*dT*mU*dA*dG*dG*dA*dT*dG*d[5mC]*kA*kT*kG; antisense) [Compound 1200834] — lower, 37 % UT
- 1200804 (kA*kG*kG*dT*dA*mU*dA*dA*d[5mC]*dT*dG*dG*dG*k[5mC]*kA*kA; antisense) [Compound 1200804] — lower, 44 % UT
- 1200847 (kA*kT*kT*dG*d[5mC]*mA*dA*dT*d[5mC]*dT*dG*dT*d[5mC]*kT*kG*kA; antisense) [Compound 1200847] — lower, 54 % UT
- 1200815 (k[5mC]*kA*k[5mC]*dT*dT*mU*dT*dA*d[5mC]*dA*dT*dT*dA*kG*kG*kA; antisense) [Compound 1200815] — lower, 55 % UT
- 1200819 (kT*kT*kA*dA*dG*mC*dA*d[5mC]*dT*dT*dT*dT*dA*k[5mC]*kA*kT; antisense) [Compound 1200819] — higher, 101 % UT

Same assay, conditions: Yap1 mRNA, percent of untreated control; modified oligonucleotides targeting SEQ ID NO: 1 and 2; Table 47

Point of comparison: “1097238 (antisense kA*kT*kT*dG*d[5mC]*dA*dA*dT*d[5mC]*dT*dG*dT*d[5mC]*kT*kG*kA) [Compound 1097238]”, “YAP1 (% UT)” value 77 % UT. Against it:
- 1197193 (antisense AGGATGCATGGTTTTT; chemistry not fully specified) [Compound 1197193] — lower, 15 % UT
- 1198872 (kT*kG*dT*dA*dT*dG*dT*d[5mC]*dA*dG*dA*kA*eG*kA*eG*kT; antisense) [Compound 1198872] — lower, 8 % UT
- 1197211 (antisense kT*kA*kT*dG*dT*dA*dA*dT*dA*dT*dT*dG*d[5mC]*kA*kA*kT) [Compound 1197211] — higher, 80 % UT
